The record followed here is patent US20210029993A1, “SPATIAL INHIBITORS, DETERRENTS AND REPELLENTS FOR MOSQUITOES AND MIDGES” (BEDOUKIAN RESEARCH, INC., priority 2005, published 2021).

Common to all, as to type: in vivo
One assay deals with biting midges. As to the kind of experiment: Spatial inhibition of biting midges, outdoor trap catch. The note with it: control trap = 100% catch, lower = more inhibition. The procedure: Two grams of test compound is absorbed onto pieces of absorbent material. These pieces of absorbent material (fragrance release material from Rhopore Inc.) containing absorbed test compound are then placed in a stream of CO2 and r-octenol being released from a biting midges biting midge trap designed to attract biting midges. The test are rotated over a period of 2-5 days in such a manner that both control (trap without test compound) and test compound are tested an equal number of times in each trap employed. The number of biting midges caught in the traps with test compounds is compared to the number of biting midges caught in the trap with no test compound material present. […] Thus, a lowered percentage is indicative of the increasing ability of the test compounds to inhibit the ability of the biting midges sense the target. In Table 6, weight percent (wt %) refers to the weight of the deterring/repelling/inhibiting compound, or combination of compounds, in the composition used in the tests. In the “Percent Caught Relative to Control” column in Table 6, a lower percentage is indicative of the increasing ability of the test compounds to inhibit the ability of the biting midges to sense the target. The weight ratio of the compounds in the combination of compounds is given in parentheses in the “Compound(s)” column of Table 6.

The next assay has as its system mosquitoes. Nature of the assay: Spatial inhibition of mosquitoes, outdoor Mosquito Magnet Liberty Plus trap catch. Conditions: for Percent Caught Relative To Control: control trap = 100% catch, lower = more inhibition; for percent mosquitoes caught relative to the control (relative catch): two grams of test compound on absorbent material in CO2 and r-octenol stream of trap, 2-5 days, FIG. 5. The method, then:
Two grams of test compound was absorbed onto pieces of absorbent material. These pieces of absorbent material (fragrance release material from Rhopore Inc.) containing absorbed test compound were then placed in a stream of CO2 and r-octenol being released from an American Biophysics Mosquito Magnet Liberty Plus mosquito trap designed to attract mosquitoes. The test were rotated over a period of 2-5 days in such a manner that both control (trap without test compound) and test compound were tested an equal number of times in each trap employed. The number of mosquitoes caught in the traps with test compounds was compared to the number of mosquitoes caught in the trap with no test compound material present. […] Thus, a lowered percentage is indicative of the increasing ability of the test compounds to inhibit the ability of the mosquitoes sense the target. […] In Table 3, weight percent (wt %) refers to the weight of the deterring/repelling/inhibiting compound, or combination of compounds, in the composition used in the tests. In the “Percent Caught Relative to Control” column in Table 3, a lower percentage is indicative of the increasing ability of the test compounds to inhibit the ability of the mosquitoes sense the target. The weight ratio of the compounds in the combination of compounds is given in parentheses in the “Compound(s)” column of Table 3.

The subject of assay [1] is female biting midges (Culicoides impunctatus). Nature of the assay: Biting midges flying test (Plexiglas module). The note with it: control = 1, higher = more inhibitor activity. The method, then: The following tests are employed to illustrate the efficacy of the compounds of this disclosure to effectively act as biting midge deterrents, repellents or as spatial inhibitors for biting midges. […] Biting midges are tested in a two-piece Plexiglas module designed to assess their response to feeding deterrents. […] Water (40° C.) flows through the central cavity of the platform at a rate of 215 ml/min. The top piece of the module consists of six 4.5×4.0×5.0 cm chambers, the floors of which are fitted with a sliding door positioned over a circular opening 3.5 cm in diameter. Biting midges are introduced through an aperture 1 cm in diameter on the front wall of the chambers. For each test, five female biting midges (Culicoides impunctatus) are aspirated into each of five chambers of the top module piece and the apertures are plugged with corks wrapped in plastic film. […] To each well, 77.5 μl of green dye (McCormick Food, Hunt Valley, Md.) are added so that those biting midges imbibing the sugar solution can be identified when crushed at the end of the tests. Each membrane receives 50 μl of acetone or experimental compound solution, applied to 9.6 cm^2 circular area on 0.1 mm-thick membranes made of nylon mesh in a silicone matrix. The membranes are then placed over each well in contact with the sugar solution. The circular openings on the floor of each chamber of the top piece of the module are aligned with each membrane-covered well of the bottom piece. The sliding floors of the chambers are then opened allowing biting midges access to the membranes. The number of biting midges landing on the membranes, and those flying within the apparatus, are recorded each minute for five minutes. After five minutes, any biting midges remaining on the membranes are removed with a metal wire, and the door of the floor of each chamber is closed. The top piece of the module is then placed into a freezer for 20 minutes. In the test designed to assess feeding, biting midges are removed from the frozen module, crushed on white paper towels, and examined for the presence of green dye to indicate that feeding had occurred. The proportions of biting midges feeding per trial are analyzed using a standard generalized linear model with a logit link. Landing and flying scores are repeated measures; five readings are obtained for groups of five biting midges. Thus, to maintain independence among the data, the five readings are summed, and then the sums divided by 25 (the maximum score in each category) to create proportions of biting midges landing and flying. The proportions are then transferred using the standard variance stabilizing transformation for proportions (sin^−1 √y, where y is the proportion), and analyzed using ANOVA (Analysis of Variables). In Table 5, weight percent (wt %) refers to the weight of the deterring/repelling/inhibiting compound, or combination of compounds, in the composition used in the tests. […] The weight ratio of the compounds in the combination of compounds is given in parentheses in the “Compound(s)” column of Table 5.

Where [2] appears, read: 80 wt % compound(s) in composition.
Setting [3] is: 85 wt % compound(s) in composition.
The mark [4] stands for this setting: 77.5 wt % compound(s) in composition.
Setting [5] is: 92.5 wt % compound(s) in composition.
Where [6] appears, read: 82.5 wt % compound(s) in composition.
[7] abbreviates: 87.5 wt % compound(s) in composition.
Setting [8] is: 95 wt % compound(s) in composition.
Where [9] appears, read: 90 wt % compound(s) in composition.

Consider `Cc1ccc(C(C)(C)O)cc1`, for which the “Percent Caught Relative To Control” value is 25% in the assay with biting midges (setting [2]) and 26% in the assay with mosquitoes (setting [2]). The “percent mosquitoes caught relative to the control (relative catch)” value with mosquitoes is given as “about 34%”. Further, in assay [1] (setting [2]), the “Flying Relative To Control” value stood at 1.2.
Turning to `C=C(C)[C@@H]1CC=C(C)[C@H](O)C1` (relative stereo) [cis-Carveol], the “Percent Caught Relative To Control” value in the assay on biting midges (setting [3]) is 24%; with mosquitoes (setting [3]), 23%. In addition, in assay [1] (setting [3]), the “Flying Relative To Control” value is recorded as 1.25.
Regarding `C=C(C)[C@@H]1CC=C(C)[C@@H](O)C1` (relative stereo) [trans-Carveol], the “Percent Caught Relative To Control” value in the assay with biting midges (setting [4]) and in the assay with mosquitoes (setting [4]) was 22% in each case. Moreover, the “Flying Relative To Control” value in assay [1] (setting [4]) was found to be 1.5.
With `C=C(C)C1CCC2(C)OC2C1` (single isomer, unassigned; (-)) [(−) Limonene oxide], the “Percent Caught Relative To Control” value with biting midges (setting [5]) was 16%; in the assay with mosquitoes (setting [5]), 17%. Moreover, in assay [1] (setting [5]), the “Flying Relative To Control” value came to 1.15.
For `CC(C)=CCCC(C)=CC=O` [Citral], the “Percent Caught Relative To Control” value in the assay on biting midges (setting [6]) was found to be 12%; in the assay with mosquitoes (setting [6]) it was 10%. Besides, the “Flying Relative To Control” value in assay [1] (setting [6]) is 2.15.
As to `CC(C)=CCCC(C)CC=O` (stereo not drawn) [Citronellal], the “Percent Caught Relative To Control” value came out at 12% with biting midges (setting [5]) and 11% with mosquitoes (setting [5]). Besides, the “Flying Relative To Control” value in assay [1] (setting [5]) was determined as 1.95.
On to `CC(C)=CCCC(C)CCO` (stereo not drawn) [Citronellol], for which the “Percent Caught Relative To Control” value in the assay on biting midges (setting [7]) and in the assay with mosquitoes (setting [7]) was 12% each time. Also, in assay [1] (setting [7]), the “Flying Relative To Control” value is listed as 1.5.
Regarding `CC(=O)OCCC(C)CCC=C(C)C` (stereo not drawn) [Citronellyl acetate], the “Percent Caught Relative To Control” value was 25% with biting midges (setting [2]) and 26% with mosquitoes (setting [2]). Besides, the “Flying Relative To Control” value in assay [1] (setting [2]) is reported as 1.25.
Regarding `CC(=O)OC/C=C(\C)CCC=C(C)C` [Geranyl acetate], the “Percent Caught Relative To Control” value with biting midges (setting [3]) came to 29%; in the assay on mosquitoes (setting [3]), 30%. For the same compound, the “Flying Relative To Control” value in assay [1] (setting [3]) amounted to 1.5.
As for `C=CC(C)(CCC=C(C)C)OC(C)=O` (stereo not drawn) [Linaloyl acetate], the “Percent Caught Relative To Control” value in the assay with biting midges (setting [8]) is 16%; in the assay on mosquitoes (setting [8]), 15%. For the same compound, the “Flying Relative To Control” value in assay [1] (setting [8]) is reported as 1.2.
Regarding `CC(=O)OC/C=C(/C)CCC=C(C)C` [Neryl acetate], the “Percent Caught Relative To Control” value in the assay with biting midges (setting [4]) was found to be 20%; in the assay with mosquitoes (setting [4]), 22%. In addition, in assay [1] (setting [4]), the “Flying Relative To Control” value was found to be 2.5.
On to `CC1=CCC(O)(C(C)C)CC1` (stereo not drawn) [Terpinen-4-ol], for which the “Percent Caught Relative To Control” value worked out at 21% in the assay on biting midges (setting [9]) and 20% in the assay with mosquitoes (setting [9]). For the same compound, the “percent mosquitoes caught relative to the control (relative catch)” value in the assay with mosquitoes is on record as “about 38%”. Besides, the “Flying Relative To Control” value in assay [1] (setting [9]) came out at 1.6.
As for `CC(C)[C@@H]1CC[C@@H](C)C(=O)C1` [Tetrahydrocarvone], the “Percent Caught Relative To Control” value with biting midges (setting [8]) and in the assay with mosquitoes (setting [8]) was 25% in each case. Further, the “percent mosquitoes caught relative to the control (relative catch)” value in the assay with mosquitoes is on record as “about 52%”. Moreover, in assay [1] (setting [8]), the “Flying Relative To Control” value worked out at 1.7.
For the compound `C=C(C)[C@H]1CC=C(C)C(=O)C1` [d-Carvone], the entries for the “Percent Caught Relative To Control” value in the assay on biting midges (setting [4]) and in the assay on mosquitoes (setting [4]) were 13% and 12%, respectively. For the same compound, in assay [1] (setting [4]), the “Flying Relative To Control” value came to 1.55.
On to `C=C[C@@](C)(O)CCC=C(C)C` [d-Linalool, reference compound], for which the “Percent Caught Relative To Control” value in the assay on biting midges (setting [2]) and in the assay with mosquitoes (setting [2]) was 6% throughout. For the same compound, in assay [1] (setting [2]), the “Flying Relative To Control” value came out at 1.35.
In the case of `CC1=CCC(C(C)(C)O)CC1` (stereo not drawn) [α-terpineol], the “Percent Caught Relative To Control” value with biting midges (setting [9]) came to 16%; in the assay on mosquitoes (setting [9]), 18%. Also, the “Flying Relative To Control” value in assay [1] (setting [9]) came to 1.5.
As for (+) Limonene oxide, the “Percent Caught Relative To Control” value was 19% with biting midges (setting [7]) and 18% in the assay on mosquitoes (setting [7]). Also, the “Flying Relative To Control” value in assay [1] (setting [7]) worked out at 0.95.
As to l-Carvone, the “Percent Caught Relative To Control” value in the assay on biting midges (setting [6]) is reported as 12%; in the assay with mosquitoes (setting [6]) it was 10%. Further, the “Flying Relative To Control” value in assay [1] (setting [6]) is 1.65.
